Experimental data: the kinase profiling compilation of Christmann-Franck et al. (2016)

Experiments:
Assay in all cases: radiometric filter-binding kinase assay
[1] = molecular target: ULK2 (human) (UniProt Q8IYT8)
[2] = molecular target: MAPK7 (human) (UniProt Q13164)
[3] = molecular target: STK33 (human) (UniProt Q9BYT3)
[4] = molecular target: SIK2 (human) (UniProt Q9H0K1)
[5] = molecular target: DDR2 (human) (UniProt Q16832)
[6] = molecular target: ZAP70 (human) (UniProt P43403)
[7] = tested on: TGFBR1 (human), P36897 [T204D]
Chain of TGFBR1 (human), P36897 [T204D] (P36897 whole entry T204D, looked up): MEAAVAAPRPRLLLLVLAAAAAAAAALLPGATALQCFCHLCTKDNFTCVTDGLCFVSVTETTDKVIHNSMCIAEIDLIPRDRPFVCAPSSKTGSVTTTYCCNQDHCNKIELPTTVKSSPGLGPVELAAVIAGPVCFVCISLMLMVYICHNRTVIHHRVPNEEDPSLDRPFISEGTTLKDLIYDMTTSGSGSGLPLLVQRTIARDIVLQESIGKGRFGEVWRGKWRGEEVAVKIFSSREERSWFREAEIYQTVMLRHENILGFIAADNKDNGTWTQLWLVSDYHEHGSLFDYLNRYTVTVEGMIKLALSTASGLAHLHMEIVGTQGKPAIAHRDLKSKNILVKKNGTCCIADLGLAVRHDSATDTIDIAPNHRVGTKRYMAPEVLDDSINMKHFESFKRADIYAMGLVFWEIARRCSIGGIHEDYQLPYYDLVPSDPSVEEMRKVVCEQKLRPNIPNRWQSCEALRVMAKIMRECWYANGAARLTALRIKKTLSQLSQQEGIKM

[8] = molecular target: PRKCG (human) (UniProt P05129)
[9] = molecular target: MAPKAPK3 (human) (UniProt Q16644)
[10] = molecular target: TTBK2 (human) (UniProt Q6IQ55)
[11] = molecular target: MAP4K3 (human) (UniProt Q8IVH8)
[12] = molecular target: ULK1 (human) (UniProt O75385)
[13] = molecular target: TSSK1B (human) (UniProt Q9BXA7)
[14] = molecular target: TLK1 (human) (UniProt Q9UKI8)
[15] = molecular target: STK16 (human) (UniProt O75716)
[16] = molecular target: TESK1 (human) (UniProt Q15569)
[17] = tested on: PRKAA1 or PRKAA2 (rat); conditions: accession and sequence are those of the human protein
[18] = molecular target: CSNK1G2 (human) (UniProt P78368)
Chain of CSNK1G2 (human) (P78368 whole entry, looked up): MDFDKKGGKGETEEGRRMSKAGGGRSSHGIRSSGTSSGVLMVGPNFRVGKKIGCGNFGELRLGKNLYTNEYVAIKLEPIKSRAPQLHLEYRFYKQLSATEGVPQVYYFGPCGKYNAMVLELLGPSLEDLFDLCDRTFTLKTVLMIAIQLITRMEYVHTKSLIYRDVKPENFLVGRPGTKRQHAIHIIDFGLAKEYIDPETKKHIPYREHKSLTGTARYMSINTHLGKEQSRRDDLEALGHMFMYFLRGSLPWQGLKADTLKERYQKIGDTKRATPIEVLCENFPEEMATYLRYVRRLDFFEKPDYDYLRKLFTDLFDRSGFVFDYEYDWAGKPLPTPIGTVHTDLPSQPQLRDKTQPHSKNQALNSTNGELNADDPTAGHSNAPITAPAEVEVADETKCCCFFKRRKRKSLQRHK

[19] = molecular target: WNK1 (human) (UniProt Q9H4A3)
Chain of WNK1 (human) (Q9H4A3 whole entry, looked up): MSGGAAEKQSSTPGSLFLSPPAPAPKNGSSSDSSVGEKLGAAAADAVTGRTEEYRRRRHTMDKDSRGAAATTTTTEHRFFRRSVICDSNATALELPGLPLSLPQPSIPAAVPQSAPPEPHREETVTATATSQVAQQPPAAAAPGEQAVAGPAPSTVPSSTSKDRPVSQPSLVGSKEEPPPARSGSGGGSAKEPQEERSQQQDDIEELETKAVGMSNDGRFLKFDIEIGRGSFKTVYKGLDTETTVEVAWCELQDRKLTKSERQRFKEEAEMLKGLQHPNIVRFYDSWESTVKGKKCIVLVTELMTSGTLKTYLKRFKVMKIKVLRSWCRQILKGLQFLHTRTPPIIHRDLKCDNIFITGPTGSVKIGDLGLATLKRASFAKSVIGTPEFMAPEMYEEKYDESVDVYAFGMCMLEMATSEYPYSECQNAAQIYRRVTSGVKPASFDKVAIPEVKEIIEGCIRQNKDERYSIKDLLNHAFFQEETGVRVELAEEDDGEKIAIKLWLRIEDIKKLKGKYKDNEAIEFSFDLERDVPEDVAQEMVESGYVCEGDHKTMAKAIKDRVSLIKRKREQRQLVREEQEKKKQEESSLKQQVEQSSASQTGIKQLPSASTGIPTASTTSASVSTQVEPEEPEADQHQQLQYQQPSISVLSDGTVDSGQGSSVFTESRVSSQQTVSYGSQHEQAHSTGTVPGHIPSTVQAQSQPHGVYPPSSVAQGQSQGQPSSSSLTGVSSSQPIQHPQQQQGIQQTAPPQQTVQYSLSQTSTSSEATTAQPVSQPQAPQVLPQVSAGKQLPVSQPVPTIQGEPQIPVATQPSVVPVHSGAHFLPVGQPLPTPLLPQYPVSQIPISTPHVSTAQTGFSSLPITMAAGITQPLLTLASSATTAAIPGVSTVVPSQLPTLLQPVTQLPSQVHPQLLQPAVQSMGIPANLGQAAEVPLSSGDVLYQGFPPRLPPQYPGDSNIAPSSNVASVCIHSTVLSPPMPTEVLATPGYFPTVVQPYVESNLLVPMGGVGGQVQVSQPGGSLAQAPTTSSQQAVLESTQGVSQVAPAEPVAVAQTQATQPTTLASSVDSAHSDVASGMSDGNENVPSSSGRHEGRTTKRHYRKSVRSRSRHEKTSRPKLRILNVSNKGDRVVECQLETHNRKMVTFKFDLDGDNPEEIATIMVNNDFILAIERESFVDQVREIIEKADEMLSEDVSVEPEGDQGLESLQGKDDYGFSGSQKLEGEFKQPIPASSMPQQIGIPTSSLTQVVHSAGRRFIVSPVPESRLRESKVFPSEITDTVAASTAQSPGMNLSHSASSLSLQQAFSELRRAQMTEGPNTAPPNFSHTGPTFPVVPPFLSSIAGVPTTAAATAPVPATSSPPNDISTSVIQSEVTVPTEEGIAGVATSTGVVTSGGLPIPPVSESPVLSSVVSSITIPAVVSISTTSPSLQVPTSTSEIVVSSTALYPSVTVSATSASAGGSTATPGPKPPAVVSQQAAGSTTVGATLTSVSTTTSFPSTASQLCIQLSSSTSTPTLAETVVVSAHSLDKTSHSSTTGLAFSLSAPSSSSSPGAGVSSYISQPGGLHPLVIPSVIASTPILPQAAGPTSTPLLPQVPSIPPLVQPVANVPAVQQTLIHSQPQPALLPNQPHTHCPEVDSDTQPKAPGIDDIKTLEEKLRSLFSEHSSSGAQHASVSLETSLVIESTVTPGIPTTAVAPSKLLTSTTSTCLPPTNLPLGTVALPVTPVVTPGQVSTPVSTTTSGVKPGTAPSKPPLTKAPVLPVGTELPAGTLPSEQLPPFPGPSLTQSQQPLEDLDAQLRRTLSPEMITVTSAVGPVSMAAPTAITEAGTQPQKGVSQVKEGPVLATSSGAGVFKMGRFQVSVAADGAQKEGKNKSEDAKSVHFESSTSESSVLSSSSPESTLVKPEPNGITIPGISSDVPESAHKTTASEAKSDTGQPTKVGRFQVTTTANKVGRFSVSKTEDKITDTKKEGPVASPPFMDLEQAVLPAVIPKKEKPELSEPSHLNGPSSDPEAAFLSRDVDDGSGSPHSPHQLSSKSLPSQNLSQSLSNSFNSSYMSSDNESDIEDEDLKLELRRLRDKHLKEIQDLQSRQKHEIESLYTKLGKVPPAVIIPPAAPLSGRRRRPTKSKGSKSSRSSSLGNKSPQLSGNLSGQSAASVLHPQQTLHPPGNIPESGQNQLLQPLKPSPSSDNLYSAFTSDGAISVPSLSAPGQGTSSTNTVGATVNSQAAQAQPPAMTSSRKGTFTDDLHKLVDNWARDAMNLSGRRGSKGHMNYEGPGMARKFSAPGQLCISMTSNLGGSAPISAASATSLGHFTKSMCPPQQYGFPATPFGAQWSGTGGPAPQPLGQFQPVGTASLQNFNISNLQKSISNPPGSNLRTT

[20] = molecular target: TTBK1 (human) (UniProt Q5TCY1)
[21] = molecular target: SIK3 (human) (UniProt Q9Y2K2)
[22] = molecular target: IRAK1 (human) (UniProt P51617)
[23] = molecular target: ABL1 (human) (UniProt P00519)
[24] = molecular target: EIF2AK3 (human) (UniProt Q9NZJ5)
[25] = tested on: OXSR1 (human), O95747 [T185E]
[26] = molecular target: PTK6 (human) (UniProt Q13882)
[27] = molecular target: STK24 (human) (UniProt Q9Y6E0)
Chain of STK24 (human) (Q9Y6E0 whole entry, looked up): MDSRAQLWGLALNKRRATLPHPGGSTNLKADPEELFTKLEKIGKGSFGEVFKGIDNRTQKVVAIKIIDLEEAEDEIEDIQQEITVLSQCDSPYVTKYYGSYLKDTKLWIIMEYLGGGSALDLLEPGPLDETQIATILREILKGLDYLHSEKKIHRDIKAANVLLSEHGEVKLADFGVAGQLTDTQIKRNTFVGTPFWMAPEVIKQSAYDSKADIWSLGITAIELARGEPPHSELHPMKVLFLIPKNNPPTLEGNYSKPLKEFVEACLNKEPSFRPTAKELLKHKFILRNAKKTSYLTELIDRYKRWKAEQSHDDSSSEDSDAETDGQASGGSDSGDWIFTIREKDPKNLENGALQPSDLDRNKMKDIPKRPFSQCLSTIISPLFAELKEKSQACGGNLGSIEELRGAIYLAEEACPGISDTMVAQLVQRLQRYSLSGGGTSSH

[28] = molecular target: MAP4K5 (human) (UniProt Q9Y4K4)
[29] = molecular target: PDGFRA (human) (UniProt P16234)
[30] = molecular target: PRKAA1 PRKAB2 PRKAG1 (human) (UniProt O43741+Q13131+P54619)
[31] = molecular target: CDK9 CCNT1 (human) (UniProt P50750+O60563)
[32] = molecular target: TEK (human) (UniProt Q02763); conditions: compound 1.0 µM

Chain of STK33 (human) (Q9BYT3 whole entry, looked up): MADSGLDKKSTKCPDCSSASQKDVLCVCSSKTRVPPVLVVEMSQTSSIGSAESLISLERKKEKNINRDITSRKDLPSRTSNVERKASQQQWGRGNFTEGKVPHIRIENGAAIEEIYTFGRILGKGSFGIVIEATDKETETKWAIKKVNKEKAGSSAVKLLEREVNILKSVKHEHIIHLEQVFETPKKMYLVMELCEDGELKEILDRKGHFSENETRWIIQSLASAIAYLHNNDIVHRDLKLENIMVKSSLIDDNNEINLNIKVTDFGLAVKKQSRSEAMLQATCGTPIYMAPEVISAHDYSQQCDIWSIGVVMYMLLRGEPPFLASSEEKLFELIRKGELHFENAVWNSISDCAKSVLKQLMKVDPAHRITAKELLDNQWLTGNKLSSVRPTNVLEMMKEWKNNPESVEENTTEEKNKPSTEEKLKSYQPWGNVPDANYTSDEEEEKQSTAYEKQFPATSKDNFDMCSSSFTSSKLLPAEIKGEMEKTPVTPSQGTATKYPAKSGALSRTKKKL

## Nc1cccc2c1CN(C1CCC(=O)NC1=O)C2=O (stereo unspecified)
[1]; compound 1.0 µM
  residual activity: 106%
[1]; compound 10.0 µM
  residual activity: 105%
[2]; compound 1.0 µM
  residual activity: 98%
[2]; compound 10.0 µM
  residual activity: 107%
[3]; compound 1.0 µM
  residual activity: 128%
[3]; compound 10.0 µM
  residual activity: 119%
[4]; compound 1.0 µM
  residual activity: 83%
[4]; compound 10.0 µM
  residual activity: 91%
[5]; compound 1.0 µM
  residual activity: 102%
[5]; compound 10.0 µM
  residual activity: 102%
[6]; compound 1.0 µM
  residual activity: 110%
[6]; compound 10.0 µM
  residual activity: 116%
[7]; compound 1.0 µM
  residual activity: 105%
[7]; compound 10.0 µM
  residual activity: 115%
[8]; compound 1.0 µM
  residual activity: 108%
[8]; compound 10.0 µM
  residual activity: 112%
[9]; compound 1.0 µM
  residual activity: 94%
[9]; compound 10.0 µM
  residual activity: 86%
[10]; compound 10.0 µM
  residual activity: 101%
[11]; compound 1.0 µM
  residual activity: 100%
[11]; compound 10.0 µM
  residual activity: 110%
[12]; compound 1.0 µM
  residual activity: 104%
[12]; compound 10.0 µM
  residual activity: 103%
[13]; compound 1.0 µM
  residual activity: 89%
[13]; compound 10.0 µM
  residual activity: 100%
[14]; compound 1.0 µM
  residual activity: 95%
[14]; compound 10.0 µM
  residual activity: 106%
[15]; compound 1.0 µM
  residual activity: 98%
[15]; compound 10.0 µM
  residual activity: 100%
[16]; compound 1.0 µM
  residual activity: 77%
[16]; compound 10.0 µM
  residual activity: 77%
[17]; compound 1.0 µM
  residual activity: 98%
[17]; compound 10.0 µM
  residual activity: 92%
[18]; compound 1.0 µM
  residual activity: 99%
[18]; compound 10.0 µM
  residual activity: 90%
[19]; compound 1.0 µM
  residual activity: 104%
[19]; compound 10.0 µM
  residual activity: 106%
[20]; compound 1.0 µM
  residual activity: 106%
[20]; compound 10.0 µM
  residual activity: 118%
[21]; compound 1.0 µM
  residual activity: 91%
[21]; compound 10.0 µM
  residual activity: 94%
[22]; compound 1.0 µM
  residual activity: 96%
[22]; compound 10.0 µM
  residual activity: 101%
[23]; compound 1.0 µM
  residual activity: 96%
[23]; compound 10.0 µM
  residual activity: 101%
[24]; compound 1.0 µM
  residual activity: 86%
[24]; compound 10.0 µM
  residual activity: 101%
[25]; compound 1.0 µM
  residual activity: 91%
[25]; compound 10.0 µM
  residual activity: 112%
[26]; compound 10.0 µM
  residual activity: 114%
[27]; compound 1.0 µM
  residual activity: 82%
[27]; compound 10.0 µM
  residual activity: 84%
[28]; compound 1.0 µM
  residual activity: 109%
[28]; compound 10.0 µM
  residual activity: 115%
[29]; compound 1.0 µM
  residual activity: 85%
[29]; compound 10.0 µM
  residual activity: 82%
[30]; compound 1.0 µM
  residual activity: 106%
[30]; compound 10.0 µM
  residual activity: 102%

## NCC(=O)Nc1ccc(-n2nc(C(F)(F)F)cc2-c2ccc3c(ccc4ccccc43)c2)cc1
[2]; compound 1.0 µM
  residual activity: 91%
[2]; compound 10.0 µM
  residual activity: 89%
[3]; compound 1.0 µM
  residual activity: 91%
[3]; compound 10.0 µM
  residual activity: 92%
[4]; compound 1.0 µM
  residual activity: 95%
[4]; compound 10.0 µM
  residual activity: 79%
[5]; compound 1.0 µM
  residual activity: 92%
[5]; compound 10.0 µM
  residual activity: 101%
[31]; compound 1.0 µM
  residual activity: 82%
[31]; compound 10.0 µM
  residual activity: 83%
[6]; compound 1.0 µM
  residual activity: 84%
[6]; compound 10.0 µM
  residual activity: 83%
[7]; compound 1.0 µM
  residual activity: 98%
[7]; compound 10.0 µM
  residual activity: 98%
[8]; compound 1.0 µM
  residual activity: 95%
[8]; compound 10.0 µM
  residual activity: 97%
[9]; compound 1.0 µM
  residual activity: 103%
[9]; compound 10.0 µM
  residual activity: 97%
[10]; compound 1.0 µM
  residual activity: 96%
[10]; compound 10.0 µM
  residual activity: 154%
[11]; compound 1.0 µM
  residual activity: 84%
[11]; compound 10.0 µM
  residual activity: 73%
[12]; compound 1.0 µM
  residual activity: 86%
[12]; compound 10.0 µM
  residual activity: 97%
[13]; compound 10.0 µM
  residual activity: 83%
[14]; compound 1.0 µM
  residual activity: 89%
[14]; compound 10.0 µM
  residual activity: 104%
[16]; compound 1.0 µM
  residual activity: 84%
[16]; compound 10.0 µM
  residual activity: 103%
[17]; compound 1.0 µM
  residual activity: 99%
[17]; compound 10.0 µM
  residual activity: 105%
[18]; compound 1.0 µM
  residual activity: 93%
[18]; compound 10.0 µM
  residual activity: 90%
[19]; compound 10.0 µM
  residual activity: 105%
[20]; compound 1.0 µM
  residual activity: 88%
[21]; compound 1.0 µM
  residual activity: 91%
[21]; compound 10.0 µM
  residual activity: 101%
[22]; compound 10.0 µM
  residual activity: 80%
[23]; compound 1.0 µM
  residual activity: 95%
[23]; compound 10.0 µM
  residual activity: 103%
[24]; compound 1.0 µM
  residual activity: 102%
[32]
  residual activity: 103%
[25]; compound 1.0 µM
  residual activity: 95%
[26]; compound 1.0 µM
  residual activity: 91%
[26]; compound 10.0 µM
  residual activity: 91%
[27]; compound 1.0 µM
  residual activity: 84%
[27]; compound 10.0 µM
  residual activity: 70%
[28]; compound 1.0 µM
  residual activity: 80%
[28]; compound 10.0 µM
  residual activity: 73%
[29]; compound 1.0 µM
  residual activity: 82%
[29]; compound 10.0 µM
  residual activity: 98%
[30]; compound 1.0 µM
  residual activity: 88%
[30]; compound 10.0 µM
  residual activity: 94%
